Experimental data as given in patent US11000033B2, “Ketone or oxime compound, and herbicide” (NISSAN CHEMICAL CORPORATION, priority 2014, dated 2021).

Tests used:
Amaranthus retroflexus = assay: Test Example 4: herbicidal effect by soil treatment (symbol N); format: in vivo; conditions: application herbicide amount 320 g/ha
In short: (§1)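 Seeds were sown in sterilized diluvial soil, covered with about 1.5 cm of soil, and the soil surface was sprayed with a water-diluted emulsion of the compound at a predetermined rate. Plants grew in a greenhouse at 25° C. to 30° C.; effects were scored visually 3 weeks after application.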

Setaria viridis [1] = assay: Test Example 5: herbicidal effect by foliage application, plastic box (symbol G); format: in vivo; conditions: 320 g/ha, 3 weeks after application
In short: (§2)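 Seeds were sown in sterilized diluvial soil, covered with about 1.5 cm of soil and grown 14 days in a greenhouse at 25° C. to 30° C. An emulsifiable formulation diluted in water to a set rate was sprayed over foliage, and injury was scored 3 weeks later.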

[2] = system: Echinochloa crus-galli var. crus-galli; assay: Test Example 5: herbicidal effect by foliage application, plastic box (symbol H); format: in vivo; conditions: 320 g/ha, 3 weeks after application
In short: as §2

Veronica persica = assay: Test Example 4: herbicidal effect by soil treatment (symbol R); format: in vivo; conditions: application herbicide amount 320 g/ha
In short: as §1

Alopecurus myosuroides = assay: Test Example 5: herbicidal effect by foliage application, plastic box (symbol J); format: in vivo; conditions: 320 g/ha, 3 weeks after application
In short: as §2

Setaria viridis [3] = assay: Test Example 4: herbicidal effect by soil treatment (symbol G); format: in vivo; conditions: application herbicide amount 320 g/ha
In short: as §1

Galium spurium = assay: Test Example 4: herbicidal effect by soil treatment (symbol Q); format: in vivo; conditions: application herbicide amount 320 g/ha
In short: as §1

[4] = system: Echinochloa oryzacola Vasing.; assay: Test Example 1: herbicidal activity, application before weed generation in submerged conditions (symbol A); format: in vivo; conditions: application herbicide amount 320 g/ha
In short: (§3)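 Compound emulsion was diluted to a set herbicide amount and applied to the water surface on the sowing day, into submerged (4 cm) alluvial-soil pots sown with mixed weed seeds and transplanted 2.5-leaf rice. Pots were held in a 25–30 °C greenhouse, and weeds were scored 0–5 by herbicidal ratio after 3 weeks.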

Scirpus juncoides = assay: Test Example 1: herbicidal activity, application before weed generation in submerged conditions (symbol B); format: in vivo; conditions: application herbicide amount 320 g/ha
In short: as §3

Chenopodium album = assay: Test Example 4: herbicidal effect by soil treatment (symbol O); format: in vivo; conditions: application herbicide amount 320 g/ha
In short: as §1

**Q.** For CON=C(C)CC1CC(O)=C(c2c(OC)cc(C)cc2OC)C1=O (stereo not drawn) [6-103], which “Herbicidal effect grade, N: Amaranthus retroflexus” value (Amaranthus retroflexus) is on record?
**A.** Its value is 0 (Herbicidal ratio of 5% or lower (almost no effect)).

**Q.** What about the “G: Setaria viridis, herbicidal effect (criteria of Test Example 1)” value (Setaria viridis [1]) of the same compound?
**A.** Its value is 5 (Herbicidal ratio of 90% or more (almost completely withered)).

**Q.** And the “H: Echinochloa crus-galli var. crus-galli, herbicidal effect (criteria of Test Example 1)” value [2]?
**A.** The value was 5 (Herbicidal ratio of 90% or more (almost completely withered)).

**Q.** What about the melting point of the same compound?
**A.** The melting point was 171 to 175 °C.

**Q.** And the “Herbicidal effect grade, R: Veronica persica” value (Veronica persica)?
**A.** The value was 0 (Herbicidal ratio of 5% or lower (almost no effect)).

**Q.** What about the “J: Alopecurus myosuroides, herbicidal effect (criteria of Test Example 1)” value (Alopecurus myosuroides) of the same compound?
**A.** Its value is 5 (Herbicidal ratio of 90% or more (almost completely withered)).

**Q.** And the “Herbicidal effect grade, G: Setaria viridis” value (Setaria viridis [3])?
**A.** The value was 5 (Herbicidal ratio of 90% or more (almost completely withered)).

**Q.** What about the “Herbicidal effect grade, Q: Galium spurium” value (Galium spurium) of the same compound?
**A.** The value was 0 (Herbicidal ratio of 5% or lower (almost no effect)).

**Q.** What about the “Herbicidal effect grade, A: Echinochloa oryzacola Vasing.” value [4] of the same compound?
**A.** Its value is 5 (Herbicidal ratio of 90% or more (almost completely withered)).

**Q.** What about the “Herbicidal effect grade, B: Scirpus juncoides” value (Scirpus juncoides) of the same compound?
**A.** Its value is 0 (Herbicidal ratio of 5% or lower (almost no effect)).

**Q.** And the “Herbicidal effect grade, O: Chenopodium album” value (Chenopodium album)?
**A.** The value was 0 (Herbicidal ratio of 5% or lower (almost no effect)).

**Q.** What does the source list for CON=C(C)CC1CC(O)=C(c2c(C)cccc2C)C1=O (stereo not drawn) [6-112]?
**A.** Herbicidal effect grade, N: Amaranthus retroflexus (Amaranthus retroflexus): 1 (Herbicidal ratio of 5% or higher and lower than 20%); G: Setaria viridis, herbicidal effect (criteria of Test Example 1) (Setaria viridis [1]): 5 (Herbicidal ratio of 90% or more (almost completely withered)); H: Echinochloa crus-galli var. crus-galli, herbicidal effect (criteria of Test Example 1) [2]: 5 (Herbicidal ratio of 90% or more (almost completely withered)); melting point: 167 to 170 °C; Herbicidal effect grade, R: Veronica persica (Veronica persica): 0 (Herbicidal ratio of 5% or lower (almost no effect)); J: Alopecurus myosuroides, herbicidal effect (criteria of Test Example 1) (Alopecurus myosuroides): 5 (Herbicidal ratio of 90% or more (almost completely withered)); Herbicidal effect grade, G: Setaria viridis (Setaria viridis [3]): 5 (Herbicidal ratio of 90% or more (almost completely withered)); Herbicidal effect grade, Q: Galium spurium (Galium spurium): 0 (Herbicidal ratio of 5% or lower (almost no effect)); Herbicidal effect grade, A: Echinochloa oryzacola Vasing. [4]: 5 (Herbicidal ratio of 90% or more (almost completely withered)); Herbicidal effect grade, B: Scirpus juncoides (Scirpus juncoides): 0 (Herbicidal ratio of 5% or lower (almost no effect)); Herbicidal effect grade, O: Chenopodium album (Chenopodium album): 0 (Herbicidal ratio of 5% or lower (almost no effect))

**Q.** For CON=C(C)CC1CC(O)=C(c2c(C)cc(-c3ccccc3)cc2OC)C1=O (stereo not drawn) [6-099], which “Herbicidal effect grade, N: Amaranthus retroflexus” value (Amaranthus retroflexus) is on record?
**A.** The value was 5 (Herbicidal ratio of 90% or more (almost completely withered)).

**Q.** What about the “G: Setaria viridis, herbicidal effect (criteria of Test Example 1)” value (Setaria viridis [1]) of the same compound?
**A.** Its value is 5 (Herbicidal ratio of 90% or more (almost completely withered)).

**Q.** What about the “H: Echinochloa crus-galli var. crus-galli, herbicidal effect (criteria of Test Example 1)” value [2] of the same compound?
**A.** The value was 5 (Herbicidal ratio of 90% or more (almost completely withered)).

**Q.** What about the melting point of the same compound?
**A.** The melting point was 175 to 177 °C.

**Q.** What about the “Herbicidal effect grade, R: Veronica persica” value (Veronica persica) of the same compound?
**A.** Its value is 4 (Herbicidal ratio of 70% or higher and lower than 90%).

**Q.** What about the “J: Alopecurus myosuroides, herbicidal effect (criteria of Test Example 1)” value (Alopecurus myosuroides) of the same compound?
**A.** The value was 5 (Herbicidal ratio of 90% or more (almost completely withered)).

**Q.** What about the “Herbicidal effect grade, G: Setaria viridis” value (Setaria viridis [3]) of the same compound?
**A.** Its value is 5 (Herbicidal ratio of 90% or more (almost completely withered)).

**Q.** And the “Herbicidal effect grade, Q: Galium spurium” value (Galium spurium)?
**A.** The value was 3 (Herbicidal ratio of 40% or higher and lower than 70%).

**Q.** And the “Herbicidal effect grade, A: Echinochloa oryzacola Vasing.” value [4]?
**A.** The value was 5 (Herbicidal ratio of 90% or more (almost completely withered)).

**Q.** And the “Herbicidal effect grade, B: Scirpus juncoides” value (Scirpus juncoides)?
**A.** The value was 5 (Herbicidal ratio of 90% or more (almost completely withered)).

**Q.** And the “Herbicidal effect grade, O: Chenopodium album” value (Chenopodium album)?
**A.** Its value is 4 (Herbicidal ratio of 70% or higher and lower than 90%).
